No end group written: not given here.
Columns and labels:
[1] = target: T1, PAR-1 (Homo sapiens, UniProt P25116); test: Antagonist study: PAR-1 inhibitor in platelet aggregation; type: cell-based; conditions: 100 nM VPX
T1 construct: endogenous in cells; host or cells: human washed platelets
T1 sequence (P25116 22-425): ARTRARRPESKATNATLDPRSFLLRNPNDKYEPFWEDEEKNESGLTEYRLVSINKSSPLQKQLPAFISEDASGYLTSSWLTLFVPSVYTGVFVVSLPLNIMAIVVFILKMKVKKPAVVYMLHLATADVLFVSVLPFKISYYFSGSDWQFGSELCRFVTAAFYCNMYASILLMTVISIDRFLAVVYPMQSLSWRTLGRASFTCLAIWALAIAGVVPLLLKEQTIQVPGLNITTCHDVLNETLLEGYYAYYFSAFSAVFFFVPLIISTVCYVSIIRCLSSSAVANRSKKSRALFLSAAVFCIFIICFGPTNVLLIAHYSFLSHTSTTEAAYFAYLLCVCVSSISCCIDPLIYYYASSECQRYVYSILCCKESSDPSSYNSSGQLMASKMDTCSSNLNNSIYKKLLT
Experimental: Human washed platelets were prepared and resuspended in Tyrode's Buffer at 2×10^8/mL as described (Edelstein et al., Nat Med. 2013; 19(12):1609-1616). […] Platelet aggregation was measured under stirring conditions at 37° C. using a PAP-8E aggregometer after treatment with the following agonists: arachidonic acid (Bio/Data Corporation, Horsham, PA, USA), cathepsin G, elastase, proteinase 3 (Athens Research Group), α-thrombin (Sigma, St. Louis, MO, USA), PAR-1 peptide (SFLLRN) (GL Biochem, China).
Antagonist Studies. Washed platelets were incubated for 15 minutes at 37° C. with PAR-4 blocking antibody RC3 (100 μg/mL) (generous gift from Regeneron Pharmaceuticals; French et al., Blood Adv. 2018; 2(11): 1283-1293), PAR-1 inhibitor vorapaxar (100 nM), and/or PAR-4 inhibitor BMS-986120 (400 nM) (Cayman Chemical, Ann Arbor, MI, USA).

[2] = system: washed platelets; test: Platelet aggregation of human washed platelets; type: cell-based; conditions: for platelet aggregation induced by peptide / peptide concentration producing maximal platelet aggregation: washed platelets; for platelet aggregation induced by peptide: 1 mM peptide (RA-6mer 1 mM or 10 mM; AL-10mer independent of concentration)
Experimental: (§1) Platelet isolation, aggregation, and activation. Human washed platelets were prepared and resuspended in Tyrode's Buffer at 2×10^8/mL as described (Edelstein et al., Nat Med. 2013; 19(12):1609-1616). For human and dog platelet comparisons, platelets were prepared using a modified human platelet protocol with final concentrations of […] (Cayman Chemical, Ann Arbor, MI, USA) used during centrifugation steps. Centrifugations after Tyrode's washes was decreased to 1,250×g as described in Cremer et al., PLOS One. 2019; 14(11): e0224891. Platelet aggregation was measured under stirring conditions at 37° C. using a PAP-8E aggregometer after treatment with the following agonists: arachidonic acid (Bio/Data Corporation, Horsham, PA, USA), cathepsin G, elastase, proteinase 3 (Athens Research Group), α-thrombin (Sigma, St. Louis, MO, USA), PAR-1 peptide (SFLLRN) (GL Biochem, China). P-selectin and PAC-1 were measured as previously described (Yee et al., J Thromb Haemost. 2006; 4(9):2043-2050; Tourdot et al., Arterioscler Thromb Vasc Biol. 2014; 34(12):2644-2650).
(§2) GYPGQV-NH2 (SEQ ID NO: 5), RALLLGWVPTR-NH2 (SEQ ID NO: 1), ALLLGWVPTR-NH2 (SEQ ID NO: 2), RALLLG-NH2 (SEQ ID NO: 4). Peptides were synthesized by BIOMATIK (Wilmington, DE, USA) at similar purities. All peptides were suspended in 50% DMSO and 50% ethanol. To measure platelet activation, washed platelets were stimulated with various concentrations of the peptide in the presence of CD41-APC, P-selectin (PE) and PAC-1 (FITC) for 15 minutes at 37° C. and then fixed with FACS Lysis Buffer. Samples were immediately run on a Cytoflex flow cytometer. In some experiments, platelets were stimulated with peptides and platelet aggregation performed as described above. Platelet calcium flux was induced by RALLLGWVPTR (2 mM; SEQ ID NO: 1), CatG (500 nM), ALLLGWVPTR (2 mM; SEQ ID NO: 2) or tyrodes buffer and monitored as described above.

[3] = system: washed platelets; test: Platelet calcium flux assay; type: cell-based, human; conditions: CatG 500 nM; for platelet calcium flux: peptides 2 mM, FURA2-AM loaded washed platelets
Experimental: Platelet calcium flux assay. Washed platelets were incubated at 37° C. for 1 hour in Tyrode's buffer (supplemented with pgel and heparin) with Fura-2AM (final concentration 2 μM). Platelets were washed and resuspended to a final concentration of 4×10^8/mL. Platelets were dispensed into a Costar 96-well half area clear bottom plate and placed in the Flexstation 3 (Molecular Devices) where cathepsin G (500 nM), buffer, or peptides (2 mM) were injected onto cells and calcium flux monitored.
as §2

[4] = Ability of peptide to go into solution; type: physicochemical; conditions: numerous attempts with different solvents
Description: Having said that, perhaps the hydrophobic portion of the C-terminus of RALLLGWVPTR (SEQ ID NO: 1) stabilizes the tethered ligand on the platelet plasma membrane.

[5] = system: rat washed platelets; test: Platelet aggregation of rat washed platelets; type: cell-based; conditions: 1 U/mL human thrombin, 1 μM human CatG or 1 mM RA-11mer
Experimental: (§3) Platelet and neutrophil isolation. Platelets and neutrophils were isolated as previously described (Yost et al., J Clin Invest. 2016; 126(10):3783-3798). Platelet isolation from dogs, rats and mice was approved by the IACUC. Platelet activation and aggregation were performed as previously described (Manne et al., Blood. 2020; 136(11): 1317-1329).
as §1

[6] = system: washed platelets; test: Platelet activation by flow cytometry (PAC-1 binding, P-selectin); type: cell-based, human; conditions: 1 mM peptide vs buffer; washed platelets
Experimental: as §1, §2

[7] = target: T2, WT human PAR4 (hPAR4) (Homo sapiens, UniProt Q96RI0); test: PAR4 calcium flux assay in HEK293T/17 cells expressing WT PAR4; type: cell-based; conditions: 1.5 mM peptide; HEK293T/17 cells
T2 construct: Flag; expressed in transfected cells; host or cells: HEK293T/17 (ATCC CRL-11268)
T2 sequence (Q96RI0 18-385): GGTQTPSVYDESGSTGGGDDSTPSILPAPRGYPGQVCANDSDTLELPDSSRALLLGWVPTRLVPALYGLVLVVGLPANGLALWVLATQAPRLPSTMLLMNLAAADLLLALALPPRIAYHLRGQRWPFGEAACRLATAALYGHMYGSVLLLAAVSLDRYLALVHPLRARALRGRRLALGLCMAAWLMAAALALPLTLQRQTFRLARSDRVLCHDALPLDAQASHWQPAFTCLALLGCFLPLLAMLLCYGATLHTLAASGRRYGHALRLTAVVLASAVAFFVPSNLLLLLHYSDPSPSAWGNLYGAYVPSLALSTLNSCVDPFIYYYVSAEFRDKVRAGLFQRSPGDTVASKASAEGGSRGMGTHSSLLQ
Experimental: PAR4 calcium flux assays. PAR4-dependent calcium flux was measured using Fura2-QBT in platelets and HEK293T/17 cells with wild-type (WT) and mutant PAR4 (Tourdot et al., Arterioscler Thromb Vasc Biol. 2014; 34(12):2644-2650).
PAR4 mutant calcium flux assays. Using Quikchange Lightning Site-Directed mutagenesis (Agilent) per manufacturing instructions, pCMV-Flag-PAR4-S66E, pCMV-Flag-PAR4-S67E, and pCMV-Flag-PAR4-R68E were generated from mutation of pCMV-Flag-PAR4 and confirmed by sequencing (University of Utah DNA Sequencing Core). Prior to transfection, HEK293T/17 cells (ATCC CRL-11268) were seeded at 4.5×10^4/mL. The following day, cells were transfected with the plasmid of interest using Lipofectamine 2000 (Invitrogen, Carlsbad, CA, USA). Twenty-four hours after transfection, media was removed and replaced with Optimem w/Glutamax (Gibco, Carlsbad, CA, USA) containing vorapaxar (100 nM) (Cayman Chemical, Ann Arbor, MI, USA) and Fura2-QBT (Molecular Devices). Following incubation for 1 hour at 37° C., plate was placed in the Flexstation 3 (Molecular Devices) where agonists, Tyrode's Buffer, cathepsin G (2.5 μM), or α-thrombin (1.5 U/mL), were injected onto cells and calcium mobilization was monitored and recorded.

[8] = system: mouse washed platelets; test: Platelet aggregation of mouse washed platelets; type: cell-based; conditions: 1 U/mL human thrombin, 1 μM human CatG or 1 mM RA-11mer
Description: (§4) Animal studies. Mouse platelets were isolated as previously described from C57BL/6 mice (Denorme et al., Blood. 2020; 135(6):429-440). Dog platelets were isolated from whole blood drawn into ACD using a similar isolation procedure as for human platelets. All animal studies were approved by the University of Utah Institutional Animal Care and Use Committee (18-10012).
as §3, §1

[9] = system: dog washed platelets; test: Platelet aggregation of dog washed platelets; type: cell-based; conditions: 1 U/mL human thrombin, 1 μM human CatG or 1 mM RA-11mer
Description: as §4, §3, §1

Q: With `CCOC(=O)N[C@@H]1CC[C@@H]2[C@@H](C1)C[C@H]1C(=O)O[C@H](C)[C@H]1[C@H]2/C=C/c1ccc(-c2cccc(F)c2)cn1` [VPX, vorapaxar] as the compound, how does the “effect on thrombin-induced platelet aggregation” value ([1]; 0.1 U/mL thrombin) read?
A: abolished

Q: What about the “effect on PAR1 activation by PAR1 activation peptide” value ([1]; SFLLRN 10 μM) of the same compound?
A: efficiently ablated PAR1 activation

Q: Which results are given for “ALLLGWVPTR (ALLLGWVPTR-NH2) [10-mer PAR4 Tethered Ligand Fragment]”?
A: platelet aggregation induced by peptide [2]: no discernable platelet aggregation; platelet calcium flux [3]: no discernable

Q: For “GYPGQV-NH2 [the thrombin-generated PAR4 tethered ligand, reference compound]”, which “peptide concentration producing maximal platelet aggregation” value [2] is on record?
A: 6 mM

Q: Which “platelet aggregation induced by peptide” value [2] does the source give for “RALLLG-NH2 [6mer from the CatG tethered ligand]” here?
A: not able to induce platelet aggregation

Q: Which “ability to go into solution” value [4] does the source give for “RALLLGWV [RALLLGWV 8mer, 8-mer PAR4 Tethered Ligand Fragment, intermediate length peptide]” here?
A: inability to go into solution

Q: With “RALLLGWVPTR (RALLLGWVPTR-NH2) [synthetic peptide representing the CatG-generated PAR4 tethered ligand]” as the compound, how does the “platelet aggregation, species comparison: humans” value ([2]; 1 U/mL human thrombin, 1 μM human CatG or 1 mM RA-11mer) read?
A: induced aggregation

Q: And the “potency as activator of PAR4, comparison” value ([2]; from platelet aggregation data)?
A: more potent activator of PAR4 than the thrombin-generated tethered ligand

Q: What about the “peptide concentration producing maximal platelet aggregation” value [2] of the same compound?
A: 1 mM

Q: What about the “platelet aggregation induced by peptide” value [2] of the same compound?
A: increased

Q: And the “platelet aggregation, species comparison: rats” value [5]?
A: induced aggregation only in humans and dogs

Q: What about the “granule release (P-selectin expression)” value [6] of the same compound?
A: increased

Q: And the “integrin activation (PAC-1 binding)” value [6]?
A: increased

Q: And the “calcium flux in HEK cells transfected with WT PAR4 compared with mock” value [7]?
A: induced calcium flux

Q: What about the “platelet aggregation, species comparison: mice” value [8] of the same compound?
A: induced aggregation only in humans and dogs

Q: What about the “platelet aggregation, species comparison: dogs” value [9] of the same compound?
A: induced aggregation

Q: What about the “peak platelet calcium flux, CatG compared with RALLLGWVPTR” value ([3]; RA-11mer 2 mM) of the same compound?
A: similar

Q: What about the platelet calcium flux [3] of the same compound?
A: significant and sustained calcium flux

— patent US12077607B2, “Functional and therapeutic effects of PAR4 cleavage by cathepsin G” (UNIVERSITY OF UTAH RESEARCH FOUNDATION, priority 2021, dated 2024)
